Measured values: patent US7989176B2, “Treating cancer” (Theryte Ltd., priority 2002, dated 2011)

Columns and labels:
[1] = system: advanced gastric cancer; details: completed phase II study, patients with advanced gastric cancer (Kaubisch et al. 2000); cited from earlier work
[2] = system: HCT116 cells; assay: Growth curves of transfected cultures; format: cell-based; details: oligonucleotide 1 μM
Description: (§1) Sense and antisense phosphorothionate oligonucleotide with the sequence set out in SEQ1 and SEQ2 respectively were synthesised in a 380B DNA synthesiser. Each oligonucleotide was premixed with lipofectin reagent and diluted in DMEM (Gibco). 6 cm plates of HCT116 cells at 40-50% confluence were rinsed once with 4 ml serum free DMEM and transfected with the oligonucleotides at a final concentration of 1 μM and the lipofectin reagent at a final concentration of 19 μg/ml according to the manufacturer's instructions (Life Technologies Inc., Gaithersburg, Md.). After 4 hours, Foetal Calf Serum (Gibco) was added to a final concentration of 10%. A lipofectin only transfection was performed as a control. Cell extracts were harvested after 48 h and examined by Western blot analysis with a pRb antibody. Equal loading of protein samples was confirmed by Coomassie blue staining or by immunoreactivity with an anti-actin antibody (Sigma). The intensities of the Rb bands were quantised with an image scanner (Molecular Dynamics). […] The treatment with the sense oligonucleotide led to about a 5% reduction in the level of pRb. […] Apoptosis in the cultures 48 h after transfection was tested for using the TUNEL assay. An in situ apoptosis detection kit ApopTag (Oncor, Gaithersburg, Md.) was used as recommended by the manufacturer. […]

[3] = system: HCT116 cells; assay: TUNEL assay for apoptosis (ApopTag kit); format: cell-based; details: 48 h after transfection
Description: as §1

[4] = system: pRb; assay: Western blot analysis of pRb expression after oligonucleotide transfection; format: cell-based; details: HCT116 cells, oligonucleotide 1 μM with lipofectin 19 μg/ml, extracts harvested after 48 h
Description: as §1

Compound	clinical responses [1]	effect on growth compared with the lipofectin-treated control culture [2]	increase in apoptosis ([3]; versus lipofectin treated culture)	percentage of TUNEL positive cells ([3]; oligonucleotide 1 μM)	level of pRb expression relative to the control culture treated only with lipofectin [4]
CN1CC[C@H](c2c(O)cc(O)c3c(=O)cc(-c4ccccc4Cl)oc23)[C@H](O)C1 [flavopiridol]	no clinical responses were observed	–	–	–	–
antisense oligonucleotide: antisense phosphorothionate oligonucleotide to Rb, sequence SEQ2: 5′ -GGTTTTGGGCGGCATGAC-3′ (DNA, all phosphorothioate, methylation of C not given here)	–	growth inhibition	> 10 fold	18+/−0.5%	about 30%
